Test results taken from US20140323428A1, “ANTINEURITIC PHARMACEUTICAL COMBINATION AND COMPOSITIONS” (priority 2011, published 2014).
“Also recorded” adds a separate entry of the source. Read-outs that look alike come from different tables or passages of the source.

How the values were obtained:
[1] = tested on: tactile allodynia induced by the linkage of the spinal nerves L5 and L6; conditions: cited from earlier work
[2] = tested on: rats subjected to L5/L6 spinal nerve ligation; experiment: Tactile allodynia (von Frey filaments, 50% withdrawal threshold, % MPE) in rats with L5/L6 spinal nerve ligation; format: in vivo, rat; conditions: for Effect on 50% withdrawal threshold (anti-allodynic effect): oxcarbazepine 30-300 mg/kg, pregabalin 0.3-30 mg/kg, vitamin B12 0.06-6 mg/kg; for ED50: Rattus norvegicus, read-out: ED50 of the anti-allodynic effect, antiepileptic alone
Experimental: 6-week-old female Wistar rats having a body weight of 140-160 g, were used. Each rat was studied only once and sacrified. The Guidelines for pain investigations in animals (Zimmermann, 1983) were used in all the experiments.
The rats were anesthesized via intraperitoneal route with a mixture of ketamine/xylazine (45 and 12 mg/kg, respectively). A partial incision was carried out in the left transverse lumbar area for isolating and ligating the L5 and L6 left spinal nerves with a silk suture 6-0. The ligation was carried out next to the formation of the sciatic nerve and distal to the dorsal root ganglion. Subsequently, the wound was sutured. Conduct tests were performed 12 days after surgery.
For the determination of tactile allodynia, the rats were placed in individual plastic boxes having a stainless steel metallic mesh bottom during 30 minutes, for their adaptation. The tactile threshold test is based in the induction of the animal's left paw withdrawal to gentle mechanical stimuli. The paw was stimulated by applying mechanical force using different Von Frey filaments ranging from 2.36 g to 6.65 g. The thinner the filament's thickness is, the fewer force is applied, and viceversa. For stimulating the animal's paw, the intermediate filament (3.41 g) was firstly used. The left paw elevation in ten seconds was taken as a positive response and a stimulus with a lower caliber filament was applied. If no withdrawal of the animal's paw occurred, it was considered as a negative response, then a stronger stimulus was applied with the next filament until the animal responded.
Once a change in the response took place, either positive or negative, the stimulation was carried out 4 more times, taking a series of 6 patterns of positive and negative responses (Chaplan et al., 1994). The response patterns were tabulated and the 50% response threshold was calculated by using the Dixon formula (1980).
Graphs of the 50% withdrawal threshold (g) as a function of time (h) were constructed from the obtained data
50% withdrawal threshold (g)=(10^[Xf+Kδ])/10,000
From the data of the 50% withdrawal threshold, bar graphs and dose response curves were constructed for the percentage of anti-allodynic effect represented as the percentage of the maximum possible effect (% MPE), by using the following formula:
% MPE=[(AUC drug−AUC vehicle/(AUC sham−AUC vehicle)]×100
In both curves the value of the ED50 was determined.

[3] = tested on: rats having neuropathic pain; experiment: Motor incoordination observed after oral administration in the allodynia study; conditions: rat, in vivo, 300 mg/kg
Experimental: However, with the higher dose (300 mg/kg) the effect was maintained even for 24 hours.
With the higher dose (30 mg/kg) motor incoordination was observed between 1 and 7 hours, whereas with the 10 mg/kg dose, incoordination was observed between 3 and 4 hours after the administration.

[4] = cited from earlier work
patients = conditions: doses of from 300 to 600 mg; cited from earlier work
plasmatic proteins = conditions: cited from earlier work

Compound | Effect on tactile allodynia [1] | Time of maximum anti-allodynic effect ([2]; oral) | Analgesic effect at 8 hours ([2]; oral, 8 hours after administration) | Effect on 50% withdrawal threshold (anti-allodynic effect) ([2]; oral) | Motor incoordination, time window after administration [3] [h] | ED50 ([2]; oral, single agent, from dose-response curves) [mg/kg] | Time for which the anti-allodynic effect was maintained ([2]; oral, higher dose 300 mg/kg) [h] | Bioavailability ([4]; after an oral dose) [%] | Time of maximum plasma peaks ([4]; after an oral dose) | Excreted by the urinary route ([4]; in vivo) | Half-life of elimination ([4]; in vivo) [h] | Metabolism ([4]; in vivo) | Oral absorption ([4]; oral) | Adverse reaction: dizziness (patients) | Adverse reaction: drowsiness (patients) | Binding to plasmatic proteins (plasmatic proteins) | ED50 ([2]; po) [mg/kg] | Analgesic effect at 24 hours ([2]; oral, 24 hours after administration)
cyanocobalamin [vitamin B12] | capable of reducing tactile allodynia | about 3 hours | no longer observed | significantly increased | – | – | – | – | – | – | – | – | – | – | – | – | – | –
NC(=O)N1c2ccccc2CC(=O)c2ccccc21 [oxcarbazepine] | – | about 3 hours | – | dose-dependent way; also recorded: significantly increased | 2 to 8 | 78.8 | ≥ 24 | – | – | – | – | – | – | – | – | – | – | –
CC(C)C[C@H](CN)CC(=O)O [pregabalin] | – | about 2 hours | – | dose-dependent way; also recorded: significantly increased | – | – | – | 90 | an hour and a half | about 98% | 6.3 | minimal metabolism | quickly absorbed | 27-46% | 15-25% | does not link to plasmatic proteins | 3.3 | no longer observed
